Measured values: patent publication US20230122463A1, “ORGANIC FINE PARTICLE” (DAIKIN INDUSTRIES, LTD., priority 2020, published 2023)

Tests used:
[1] = Water contact angle of polymer (spin-coated film, static contact angle); type: physicochemical; settings: homopolymer of the monomer; silicon wafer spin-coated with 1.0% chloroform solution; 2 µL water, 1 minute after the droplet reached the film
Method: For the water contact angle of the polymer, a silicon wafer substrate was spin-coated with a chloroform solution of the resulting polymer with a solid concentration of 1.0% and the static water contact angle was measured. The static contact angle was obtained by dropping 2 µL of water on a coating film and measuring the contact angle 1 minute after the droplet reached the film.

[2] = Solubility in water of polymer and of monomer; type: physicochemical; settings: thermodynamic from solid
Method: For the solubility in water of the monomers, the respective monomers were added in small batches to a predetermined amount of water, and the solubility in water was determined from the amount of dissolution when no more monomer could be dissolved (floating, precipitation or deposition occurred, or the solution became clouded).

SMILES | Water contact angle of homopolymer [1] [°] | solubility [2] [µg/mL] | melting point [°C]
C=C(C)C(=O)OCC(CC)CCCC (stereo not shown) [EHMA, 2-ethyhexyl methacrylate] | 97 | – | –
C=CC(=O)OCCCCCCCCCCCCCCCCCC [SA, stearyl acrylate] | 102 | < 100 | 50
